This note sets out measurements from patent publication US11712443B2, “17α-monoesters and 17α,21-diesters of cortexolone for use in the treatment of tumors” (COSMO TECHNOLOGIES LTD., priority 2014, dated 2023).

The subject of one data set is LNCaP. Kind of data set: ATP-dependent proliferation/viability assay (Cell Titer Glo), 3 days. As to conditions: 3 days. The procedure:
(§1) The experiment was performed to test and to define the antitumor activity in vitro of cortexolone 17α-benzoate on LNCaP (AR+) and PC3 (AR^−), representative of Prostatic cancer cell lines with Androgen Receptor (AR) positive or negative expression, respectively. The experimental method consisted of: • 1. […] After 24 hours, 10 nM DHT (dihydrotestosterone) with or without anti-androgen compounds, or DMSO vehicle (negative control) was added to the cultures. • 3.
(§2) The experiment was performed to test and to define antitumor activity in vitro of cortexolone 17α-valerate-21-propionate (CB-03-10) on LNCaP (AR+) and PC3 (AR^−), representative of Prostatic cancer cell lines with AR positive or negative expression, respectively. The experimental method consisted of: • 1. […] After 24 hours, 10 nM DHT (dihydrotestosterone) with or without anti-androgen compounds, or DMSO vehicle (negative control) was added to the cultures. • 3.
A general note: In ATP-based viability assays light output follows the ATP content of the culture.

The test system of a further data set is PC3. Described as above. As to conditions: 3 days. The procedure: as §1, §2
For data set [1], the system named is HT29. Put plainly: MTT colorimetric assay, 72 h. The data set is classed as cell-based. As to conditions: human, 72 h. The procedure:
The experiment was performed to test and define anticancer activity in vitro of Cortexolone 17α-benzoate and cortexolone 17α-valerate-21-propionate on cell lines representatives of epithelial intestinal tumors, namely HT29. The experiment method consisted in: • 1. Monolayer HT-29 cells were plated in: 96-wells plates at the density of 2×10^4 cells/mL. The cells plated were kept at 37° C. in 5% CO2 and left to attach for 24 h. • 2. […] After 72 h of treatment, the MTT colorimetric assay was performed.

In the next data set the target is T1, Glucocorticoid Receptor (Homo sapiens, UniProt P04150).
T1 construct: endogenous in cells; host or cells: human kidney epithelial cells
T1 sequence (P04150 1-777): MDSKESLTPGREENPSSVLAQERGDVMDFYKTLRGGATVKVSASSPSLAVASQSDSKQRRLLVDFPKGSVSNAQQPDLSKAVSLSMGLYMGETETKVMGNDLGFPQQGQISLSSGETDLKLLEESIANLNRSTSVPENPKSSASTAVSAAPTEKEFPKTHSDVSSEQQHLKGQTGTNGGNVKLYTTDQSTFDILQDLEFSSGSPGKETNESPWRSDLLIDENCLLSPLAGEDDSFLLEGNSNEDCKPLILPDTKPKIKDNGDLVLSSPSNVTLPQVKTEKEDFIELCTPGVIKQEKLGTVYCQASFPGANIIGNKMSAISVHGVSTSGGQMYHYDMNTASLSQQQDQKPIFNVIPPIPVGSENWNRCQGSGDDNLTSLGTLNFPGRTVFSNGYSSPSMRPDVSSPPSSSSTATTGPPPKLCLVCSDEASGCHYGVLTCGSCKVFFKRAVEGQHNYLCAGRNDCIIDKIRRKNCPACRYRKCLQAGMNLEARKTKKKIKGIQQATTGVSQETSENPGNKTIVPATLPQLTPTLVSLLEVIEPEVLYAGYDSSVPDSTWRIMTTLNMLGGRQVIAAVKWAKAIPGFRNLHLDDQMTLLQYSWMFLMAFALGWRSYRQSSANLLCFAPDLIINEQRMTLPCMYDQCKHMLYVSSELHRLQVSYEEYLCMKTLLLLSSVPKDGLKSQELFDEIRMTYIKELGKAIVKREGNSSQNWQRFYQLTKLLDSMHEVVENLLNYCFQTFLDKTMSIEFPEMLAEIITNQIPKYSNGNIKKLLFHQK
Kind of data set: GR transcriptional reporter assay, agonist mode. The data set is classed as cell-based. The procedure: The androgen and glucocorticoid hormones elicit divergent and often opposing effects in cells, tissues, and animals. […] CB-03-10 GR antagonist and agonist activities were tested in an in vitro assay. Briefly, human kidney epithelial cells were transfected with DNA construct containing GR binding sites linked to luminescent based reporter molecule. After 24 hours, cells were treated under antagonist or agonist modes. After an additional 24 hours, luminescence which is proportional to GR agonist transcriptional activity was quantitated.
Agonist Assay—was based on induction of luminescence by CB-03-10
The agonist activity of CB-03-10 was compared to a RU486 which is known to not have agonist activity.

The subject of a further data set is Caspases 8, 9 and 3/7. Put plainly: Caspase activity assay in LNCaP prostate cancer cells. As to conditions: 24 hours, FIG. 12. The data set is classed as cell-based. The procedure:
After 24 hours test compounds were added to cells, Gemcitabine (a known pancreatic cancer chemotherapeutic agent) and DMSO were used as positive and negative control, respectively. After 8, 24, & 48 hours incubation with test compounds, cells were lysed in buffer containing the caspase 3/7 or 8 or 9 substrate and a stable luciferase in proprietary buffers. The lysates were transferred to white opaque plates before measuring luminescence in a Tecan S afire instrument. Parallel plates treated identically, were used to determine viable cells. All caspase activities were corrected for the number of viable cells.
Same assay was repeated using LNCaP prostate cancer cell lines (FIG. 12). […] The results are shown in FIG. 12 at 24 hours incubation when the caspase activities peaked.

The test system of data set [2] is HT29. Kind of data set: In vitro proliferation, larger cancer cell line panel. Conditions: HT29.

Usually IC50 stands for the point on the concentration scale where inhibition reaches its midpoint. As for `CCCCC(=O)O[C@]1(C(=O)COC(=O)CC)CC[C@H]2[C@@H]3CCC4=CC(=O)CC[C@]4(C)[C@H]3CC[C@@]21C` [CB-03-10, cortexolone 17α-valerate-21-propionate], the IC50 came out at 13 µM in the data set on LNCaP (Homo sapiens, LNCaP, 72 h, LNCaP (AR+), 10 nM DHT, Examples 1-2 Experiment 1, sigmoidal dose response fit) and 50 µM with PC3 (Homo sapiens, 72 h, PC3 (AR-), 10 nM DHT, Examples 1-2 Experiment 2, nonlinear regression least squares fit, additional experiments). Also, the results for the “Therapeutic Index = IC50 resting PBMC/IC50 cancer cell” value in the data set with LNCaP (human), with PC3 (human) and in the data set on HT29 [2] (Table IV) were 9, 2 and 3, respectively. Further, the “Therapeutic Index = IC50 stimulated PBMC/IC50 cancer cell” value turned out to be 9 in the data set with LNCaP (human), 2 with PC3 (human) and 3 in the data set with HT29 [2] (Table VII). Further, the “Therapeutic Index (TI), Stimulated PBMC” value in the data set with HT29 [1] was 3. In addition, the “GR agonist activity relative to that of 50 nM Dex” value on Glucocorticoid Receptor (at very high concentrations) is recorded as 20%. For the same molecule, on Glucocorticoid Receptor (induction of luminescence, FIG. 8), the GR agonist activity result was “essentially ineffective as GR agonist”. Further, the “Initiator (8 and 9) and Effector (3/7) caspase activities” value in the data set on Caspases 8, 9 and 3/7 was “induced Initiator (8 and 9) and Effector (3/7) caspase activities better than Enzalutamide”.
